Tests used:
Format in all cases: in vivo
[1] = tested on: Blumeria graminis forma specialis tritici; assay: Activity against mildew of wheat caused by Blumeria graminis forma specialis tritici; conditions: wheat seedlings "Kanzler", dusted with spores 24 h after spraying, 7 days
Protocol: (§1) The active compounds were prepared separately or jointly as a 10% strength emulsion in a mixture of 70% by weight of cyclohexanone, 20% by weight of Nekanil® LN (Lutensol® AP6, wetting agent having emulsifying and dispersing action based on ethoxylated alkylphenols) and 10% by weight of Wettol® EM (nonionic emulsifier based on ethoxylated castor oil) and diluted with water to the desired concentration.
Leaves of potted wheat seedlings of the cultivar “Kanzler” were sprayed to runoff point with an aqueous preparation of active compound which had been prepared from a stock solution made of 10% of active compound, 85% of cyclohexanone and 5% of emulsifier and were dusted 24 hours after the spray coating had dried on with spores of mildew of wheat (Blumeria graminis forma specialis tritici). The test plants were then placed in a greenhouse at 20-24° C. and 60-90% relative atmospheric humidity. After 7 days, the extent of the mildew development was determined visually in % infection of the entire leaf area.

Pyrenophora teres = assay: Activity against net blotch of barley caused by Pyrenophora teres; conditions: barley seedlings "Igri", inoculated 24 h after spraying, 6 days
Protocol: as §1
Leaves of potted barley seedlings of the cultivar “Igri” were sprayed to runoff point with an aqueous preparation of active compound which had been prepared from a stock solution made of 10% of active compound, 85% of cyclohexanone and 5% of emulsifier and were inoculated 24 hours after the spray coating had dried on with an aqueous spore suspension of Pyrenophora teres, the net blotch pathogen. The test plants were then placed in a greenhouse at 20-24° C. and 95-100% relative atmospheric humidity. After 6 days, the extent of the development of the disease was determined visually in % infection of the entire leaf area.

Puccinia recondita = assay: Curative activity against brown rust of wheat caused by Puccinia recondita; conditions: curative spray 24 h after inoculation, wheat seedlings "Kanzler", 7 days
Protocol: as §1
Leaves of potted wheat seedlings of the cultivar “Kanzler” were dusted with spores of brown rust (Puccinia recondita). The pots were then placed in a chamber with high atmospheric humidity (90 to 95%) at 20-22° C. for 24 hours. During this period, the spores germinated and the germinal tubes penetrated into the leaf tissue. The following day, the infected plants were sprayed to runoff point with an aqueous preparation of active compound which had been prepared from a stock solution made of 10% of active compound, 85% of cyclohexanone and 5% of emulsifier. After the spray coating had dried on, the test plants were cultivated in a greenhouse at 20-22° C. and 65-70% relative atmospheric humidity for 7 days. The extent of the rust fungus development on the leaves was then determined.

Cc1cccc(F)c1-c1c(Cl)nc2ncnn2c1NC(C)C(C)(C)C (single isomer, unassigned) [I.-12a]
% infection of the leaves after application of an aqueous preparation comprising . . . ppm of active compound ([1]; 16 ppm): 7%
% infection of the leaves after application of an aqueous preparation comprising . . . ppm of active compound ([1]; 63 ppm): 7%
% infection of the leaves after application of an aqueous preparation comprising . . . ppm of active compound ([1]; 250 ppm): 7%
% infection of the leaves after application of an aqueous preparation comprising . . . ppm of active compound (Pyrenophora teres; 16 ppm): 0%
% infection of the leaves after application of an aqueous preparation comprising . . . ppm of active compound (Pyrenophora teres; 63 ppm): 0%
% infection of the leaves after application of an aqueous preparation comprising . . . ppm of active compound (Pyrenophora teres; 250 ppm): 0%

Cc1cccc(F)c1-c1c(Cl)nc2ncnn2c1N[C@H](C)C(C)(C)C (single isomer, unassigned) [I.-12b]
% infection of the leaves after application of an aqueous preparation comprising . . . ppm of active compound ([1]; 16 ppm): 60%
% infection of the leaves after application of an aqueous preparation comprising . . . ppm of active compound ([1]; 63 ppm): 60%
% infection of the leaves after application of an aqueous preparation comprising . . . ppm of active compound ([1]; 250 ppm): 60%
% infection of the leaves after application of an aqueous preparation comprising . . . ppm of active compound (Pyrenophora teres; 16 ppm): 7%
% infection of the leaves after application of an aqueous preparation comprising . . . ppm of active compound (Pyrenophora teres; 63 ppm): 7%
% infection of the leaves after application of an aqueous preparation comprising . . . ppm of active compound (Pyrenophora teres; 250 ppm): 0%

C[C@@H](Nc1c(-c2c(F)cccc2Cl)c(Cl)nc2ncnn12)C(C)(C)C [I.-3]
% infection of the leaves after application of an aqueous preparation comprising . . . ppm of active compound (Puccinia recondita; 250 ppm): 20%

CC(Nc1c(-c2c(F)cccc2F)c(Cl)nc2ncnn12)C(C)(C)C (stereo not shown) [I.-6]
% infection of the leaves after application of an aqueous preparation comprising . . . ppm of active compound ([1]; 63 ppm): 50%
% infection of the leaves after application of an aqueous preparation comprising . . . ppm of active compound ([1]; 250 ppm): 40%
% infection of the leaves after application of an aqueous preparation comprising . . . ppm of active compound (Pyrenophora teres; 16 ppm): 0%
% infection of the leaves after application of an aqueous preparation comprising . . . ppm of active compound (Pyrenophora teres; 63 ppm): 0%

CC(Nc1c(-c2c(Cl)cccc2Cl)c(Cl)nc2ncnn12)C(C)(C)C (stereo not shown) [I.-9]
% infection of the leaves after application of an aqueous preparation comprising . . . ppm of active compound (Pyrenophora teres; 16 ppm): 0%
% infection of the leaves after application of an aqueous preparation comprising . . . ppm of active compound (Pyrenophora teres; 63 ppm): 0%
% infection of the leaves after application of an aqueous preparation comprising . . . ppm of active compound (Pyrenophora teres; 250 ppm): 0%

Cc1cc(F)ccc1-c1c(Cl)nc2ncnn2c1NC(C)C(C)(C)C (stereo not shown) [I.-24]
% infection of the leaves after application of an aqueous preparation comprising . . . ppm of active compound ([1]; 16 ppm): 10%
% infection of the leaves after application of an aqueous preparation comprising . . . ppm of active compound ([1]; 63 ppm): 5%
% infection of the leaves after application of an aqueous preparation comprising . . . ppm of active compound ([1]; 250 ppm): 3%

CCCCCC(C)Nc1c(-c2c(F)cc(F)cc2F)c(Cl)nc2ncnn12 (stereo not shown) [I.-28]
% infection of the leaves after application of an aqueous preparation comprising . . . ppm of active compound (Pyrenophora teres; 16 ppm): 90%
% infection of the leaves after application of an aqueous preparation comprising . . . ppm of active compound (Pyrenophora teres; 63 ppm): 40%
% infection of the leaves after application of an aqueous preparation comprising . . . ppm of active compound (Pyrenophora teres; 250 ppm): 20%

C[C@@H](Nc1c(-c2c(F)cc(F)cc2F)c(Cl)nc2ncnn12)C1CCCCC1 [I.-31]
% infection of the leaves after application of an aqueous preparation comprising . . . ppm of active compound ([1]; 16 ppm): 15%
% infection of the leaves after application of an aqueous preparation comprising . . . ppm of active compound ([1]; 63 ppm): 7%
% infection of the leaves after application of an aqueous preparation comprising . . . ppm of active compound ([1]; 250 ppm): 5%
% infection of the leaves after application of an aqueous preparation comprising . . . ppm of active compound (Pyrenophora teres; 16 ppm): 40%
% infection of the leaves after application of an aqueous preparation comprising . . . ppm of active compound (Pyrenophora teres; 63 ppm): 3%
% infection of the leaves after application of an aqueous preparation comprising . . . ppm of active compound (Pyrenophora teres; 250 ppm): 0%

CC[C@@H](C)Nc1c(-c2ccccc2Cl)c(Cl)nc2ncnn12 [I.-42]
% infection of the leaves after application of an aqueous preparation comprising . . . ppm of active compound (Puccinia recondita; 16 ppm): 30%
% infection of the leaves after application of an aqueous preparation comprising . . . ppm of active compound (Puccinia recondita; 63 ppm): 20%
% infection of the leaves after application of an aqueous preparation comprising . . . ppm of active compound (Puccinia recondita; 250 ppm): 5%

CC(Nc1c(-c2c(F)cccc2Cl)c(Cl)nc2ncnn12)C(C)(C)C [comparison (S)-amine of I.-3]
% infection of the leaves after application of an aqueous preparation comprising . . . ppm of active compound (Puccinia recondita; 250 ppm): 100%

C[C@H](Nc1c(-c2c(F)cccc2F)c(Cl)nc2ncnn12)C(C)(C)C [comparison (S)-amine of I.-6]
% infection of the leaves after application of an aqueous preparation comprising . . . ppm of active compound ([1]; 63 ppm): 90%
% infection of the leaves after application of an aqueous preparation comprising . . . ppm of active compound ([1]; 250 ppm): 90%
% infection of the leaves after application of an aqueous preparation comprising . . . ppm of active compound (Pyrenophora teres; 16 ppm): 60%
% infection of the leaves after application of an aqueous preparation comprising . . . ppm of active compound (Pyrenophora teres; 63 ppm): 5%

C[C@H](Nc1c(-c2c(Cl)cccc2Cl)c(Cl)nc2ncnn12)C(C)(C)C [comparison (S)-amine of I.-9]
% infection of the leaves after application of an aqueous preparation comprising . . . ppm of active compound (Pyrenophora teres; 16 ppm): 100%
% infection of the leaves after application of an aqueous preparation comprising . . . ppm of active compound (Pyrenophora teres; 63 ppm): 100%
% infection of the leaves after application of an aqueous preparation comprising . . . ppm of active compound (Pyrenophora teres; 250 ppm): 100%

Cc1cccc(F)c1-c1c(Cl)nc2ncnn2c1NC(C)C(C)(C)C [comparison (S)-amine of I.-12a]
% infection of the leaves after application of an aqueous preparation comprising . . . ppm of active compound ([1]; 16 ppm): 100%
% infection of the leaves after application of an aqueous preparation comprising . . . ppm of active compound ([1]; 63 ppm): 100%
% infection of the leaves after application of an aqueous preparation comprising . . . ppm of active compound ([1]; 250 ppm): 100%
% infection of the leaves after application of an aqueous preparation comprising . . . ppm of active compound (Pyrenophora teres; 16 ppm): 100%
% infection of the leaves after application of an aqueous preparation comprising . . . ppm of active compound (Pyrenophora teres; 63 ppm): 100%
% infection of the leaves after application of an aqueous preparation comprising . . . ppm of active compound (Pyrenophora teres; 250 ppm): 100%

Cc1cccc(F)c1-c1c(Cl)nc2ncnn2c1NC(C)C(C)(C)C [comparison (S)-amine of I.-12b]
% infection of the leaves after application of an aqueous preparation comprising . . . ppm of active compound ([1]; 16 ppm): 100%
% infection of the leaves after application of an aqueous preparation comprising . . . ppm of active compound ([1]; 63 ppm): 100%
% infection of the leaves after application of an aqueous preparation comprising . . . ppm of active compound ([1]; 250 ppm): 100%
% infection of the leaves after application of an aqueous preparation comprising . . . ppm of active compound (Pyrenophora teres; 16 ppm): 100%
% infection of the leaves after application of an aqueous preparation comprising . . . ppm of active compound (Pyrenophora teres; 63 ppm): 100%
% infection of the leaves after application of an aqueous preparation comprising . . . ppm of active compound (Pyrenophora teres; 250 ppm): 100%

Cc1cc(F)ccc1-c1c(Cl)nc2ncnn2c1NC(C)C(C)(C)C [comparison (S)-amine of I.-24]
% infection of the leaves after application of an aqueous preparation comprising . . . ppm of active compound ([1]; 16 ppm): 60%
% infection of the leaves after application of an aqueous preparation comprising . . . ppm of active compound ([1]; 63 ppm): 60%
% infection of the leaves after application of an aqueous preparation comprising . . . ppm of active compound ([1]; 250 ppm): 15%

CCCCC[C@H](C)Nc1c(-c2c(F)cc(F)cc2F)c(Cl)nc2ncnn12 [comparison (S)-amine of I.-28]
% infection of the leaves after application of an aqueous preparation comprising . . . ppm of active compound (Pyrenophora teres; 16 ppm): 100%
% infection of the leaves after application of an aqueous preparation comprising . . . ppm of active compound (Pyrenophora teres; 63 ppm): 100%
% infection of the leaves after application of an aqueous preparation comprising . . . ppm of active compound (Pyrenophora teres; 250 ppm): 100%

C[C@H](Nc1c(-c2c(F)cc(F)cc2F)c(Cl)nc2ncnn12)C1CCCCC1 [comparison (S)-amine of I.-31]
% infection of the leaves after application of an aqueous preparation comprising . . . ppm of active compound ([1]; 16 ppm): 50%
% infection of the leaves after application of an aqueous preparation comprising . . . ppm of active compound ([1]; 63 ppm): 50%
% infection of the leaves after application of an aqueous preparation comprising . . . ppm of active compound ([1]; 250 ppm): 15%
% infection of the leaves after application of an aqueous preparation comprising . . . ppm of active compound (Pyrenophora teres; 16 ppm): 100%
% infection of the leaves after application of an aqueous preparation comprising . . . ppm of active compound (Pyrenophora teres; 63 ppm): 80%
% infection of the leaves after application of an aqueous preparation comprising . . . ppm of active compound (Pyrenophora teres; 250 ppm): 80%

CCC(C)Nc1c(-c2ccccc2Cl)c(Cl)nc2ncnn12 [comparison (S)-amine of I.-42]
% infection of the leaves after application of an aqueous preparation comprising . . . ppm of active compound (Puccinia recondita; 16 ppm): 100%
% infection of the leaves after application of an aqueous preparation comprising . . . ppm of active compound (Puccinia recondita; 63 ppm): 60%
% infection of the leaves after application of an aqueous preparation comprising . . . ppm of active compound (Puccinia recondita; 250 ppm): 15%

Reference: patent US20040110771A1, “7-(r)-aminotriazolopyrimidines, the production thereof and use of the same for combatting phytopathogenic fungi” (priority 2000, published 2004)
